The test system of series [1] is Aspergillus fumigatus FD050. The series is described as follows: Antifungal activity, microbroth dilution in YNBD medium, Aspergillus fumigatus FD050. The following applies: 1×10^4 cfu/100 μl/well, 37° C., 22 hours, 0.5% glucose-containing YNBD, microscopical observation. The series is classed as cell-based. On the procedure:
(§1) The antifungal activity of WF16616 substnace was measured in a 0.5% glucose-containing yeast nitrogen base (YNBD) medium by a microbroth dilution analysis method using a 96-well microtiter plate. This substance was dissolved in methanol, and was diluted to twice in sequence in the microtiter plate using the YNBD medium. The test microorganism was inoculated at a concentration of 1×10^4 cfu/100 μl/well. Candida albicans and Aspergillus fumigatus were incubated in the above-mentioned plate at 37° C. for 22 hours, and Cryptococcus neoformans at 30° C. for 48 hours, respectively. Then, MIC was measured through microscopical observation.
For orientation: Broth dilution looks for growth in wells or tubes with falling amounts of substance.

Series [2] concerns Cryptococcus neoformans YC203. As to the kind of experiment: Antifungal activity, microbroth dilution in YNBD medium, Cryptococcus neoformans YC203. The format is cell-based. The following applies: 1×10^4 cfu/100 μl/well, 30° C., 48 hours, 0.5% glucose-containing YNBD, microscopical observation. On the procedure: as §1
The next series relates to Candida albicans FP633. As to the kind of experiment: Antifungal activity, microbroth dilution in YNBD medium, Candida albicans FP633. The format is cell-based. The conditions noted are these: 1×10^4 cfu/100 μl/well, 37° C., 22 hours, 0.5% glucose-containing YNBD, microscopical observation. On the procedure: as §1
A further series has as its system ICR female mice. As to the kind of experiment: Toxicity test, intraperitoneal injection in mice. The series is classed as in vivo. The following applies: 5 mg/kg intraperitoneally once a day for three days. On the procedure: WF16616 substance was intraperitoneally injected into each of five 5-week-old ICR female mice at a dose of 5 mg/kg once a day for three days.

A further series relates to Candida albicans No. 7. The series is described as follows: Antifungal activity, microbroth dilution in YNBD medium, Candida albicans No. 7. The series is classed as cell-based. The following applies: 1×10^4 cfu/100 μl/well, 37° C., 22 hours, 0.5% glucose-containing YNBD, microscopical observation. The procedure: as §1

Each structure is given as a SMILES string. Values after ≈ are worked out from the molar mass of the structure shown. Some results are limits rather than exact numbers.

In general, MIC refers to the lowest concentration that inhibits growth of the organism. Higher therefore signals weaker potency.

For the compound `CCC(C)CC(C)CCCCCCCCC(=O)NC1CC(O)C(O)NC(=O)C2C(O)C(C)CN2C(=O)C(C(O)CC(N)=O)NC(=O)C(C(O)C(O)c2ccc(O)c(OS(=O)(=O)O)c2)NC(=O)C2CC(O)CN2C(=O)C(C(C)O)NC1=O` (stereo not drawn) [WF16616 substance], the MIC in series [1] was 0.16 µg/mL (≈ 0.136 µM); in series [2], > 50 µg/mL; in the series with Candida albicans FP633 it was 0.1 µg/mL (≈ 0.0851 µM); in the series on Candida albicans No. 7, 0.78 µg/mL (≈ 0.664 µM). For the same compound, in the series with ICR female mice (five 5-week-old ICR female mice), the dead mice entry is “none of the mice were dead”. Besides, the “increase in the weight of mice” value in the series with ICR female mice (versus unadministered mice) is “quite the same as that in the weight of unadministered mice”.

The values are drawn from patent publication US5854276A, “Substance WF16616, process for production thereof, and use thereof” (Fujisawa Pharmaceutical Co., Ltd., priority 1995, dated 1998).
